The assay has as its target CDK2 (UniProt P24941). Put plainly: Enzyme Assay. Particulars: concentration not given here.

For orientation: inhibition means the percentage by which the read-out fell short of the control. Read a high inhibition as a strong effect. With `CS(=O)(=O)c1ccccc1S(=O)(=O)Nc1ccc2[nH]nc(-c3ccco3)c2c1`, the inhibition was 76%.

With `CS(=O)(=O)c1ccccc1S(=O)(=O)Nc1ccc2[nH]nc(-c3cccnc3)c2c1`, the inhibition is 88%.

`CS(=O)(=O)c1ccccc1S(=O)(=O)Nc1ccc2[nH]nc(-c3ccc(Br)cc3)c2c1`: the inhibition came out at 75%.

As for `CCc1ccc(-c2n[nH]c3ccc(NS(=O)(=O)c4ccccc4S(C)(=O)=O)cc23)cc1`, the inhibition stood at 65%.

With `COC(=O)c1cccc(-c2n[nH]c3ccc(NS(=O)(=O)c4ccccc4S(C)(=O)=O)cc23)c1`, the inhibition is 64%.

Turning to `COc1ccc(-c2n[nH]c3ccc(NS(=O)(=O)c4ccccc4S(C)(=O)=O)cc23)cc1OC`, the inhibition stood at 76%.

`CS(=O)(=O)c1ccccc1S(=O)(=O)Nc1ccc2[nH]nc(-c3ccc(Cl)s3)c2c1` came in with an inhibition of 55%.

Compound `CS(=O)(=O)c1ccccc1S(=O)(=O)Nc1ccc2[nH]nc(-c3ccoc3)c2c1` showed an inhibition of 80%.

In turn, `CS(=O)(=O)c1ccccc1S(=O)(=O)Nc1ccc2[nH]nc(-c3cccc4c3oc3ccccc34)c2c1` came in with an inhibition of 13%.

`Cc1ccccc1S(=O)(=O)Nc1ccc2[nH]nc(-c3ccccc3)c2c1`: the inhibition turned out to be 77%.

For `O=S(=O)(Nc1ccc2[nH]nc(-c3ccccc3)c2c1)c1ccc(F)cc1`, the inhibition came out at 56%.

Consider `O=S(=O)(Nc1ccc2[nH]nc(-c3ccccc3)c2c1)C1CCNCC1`, for which the inhibition is 13%.

The compound `CS(=O)(=O)c1ccccc1S(=O)(=O)Nc1ccc2[nH]nc(-c3ccc(Oc4ccccc4)cc3)c2c1` displayed an inhibition of 20%.

In turn, `CS(=O)(=O)c1ccccc1S(=O)(=O)Nc1ccc2[nH]nc(/C=C/c3ccc(Cl)cc3)c2c1` gave an inhibition of 96%.

`N#Cc1cccc(S(=O)(=O)Nc2ccc3[nH]nc(-c4ccccc4)c3c2)c1` displayed an inhibition of 75%.

`CS(=O)(=O)c1ccccc1S(=O)(=O)Nc1ccc2[nH]nc(-c3cc4ccccc4o3)c2c1` showed an inhibition of 93%.

Consider `CS(=O)(=O)c1ccc(S(=O)(=O)Nc2ccc3[nH]nc(-c4ccccc4)c3c2)cc1`, for which the inhibition was 50%.

In turn, `CN(C)c1cccc2c(S(=O)(=O)Nc3ccc4[nH]nc(-c5ccccc5)c4c3)cccc12` had an inhibition of 84%.

`CS(=O)(=O)c1ccccc1S(=O)(=O)Nc1ccc2[nH]nc(/C=C/c3ccccc3)c2c1` had an inhibition of 96%.

With `CC(C)c1cccc(-c2n[nH]c3ccc(NS(=O)(=O)c4ccccc4S(C)(=O)=O)cc23)c1`, the inhibition was 59%.

Regarding `O=S(=O)(Nc1ccc2[nH]nc(-c3cc4ccccc4[nH]3)c2c1)c1ccccc1`, the inhibition was 100%.

Consider `CS(=O)(=O)c1ccccc1S(=O)(=O)Nc1ccc2[nH]nc(/C=C/c3ccc(F)cc3)c2c1`, for which the inhibition was 95%.

`CS(=O)(=O)c1ccccc1S(=O)(=O)Nc1ccc2[nH]nc(-c3ccc(C#N)cc3)c2c1` had an inhibition of 86%.

As for `CS(=O)(=O)c1ccccc1S(=O)(=O)Nc1ccc2[nH]nc(-c3ccccc3Cl)c2c1`, the inhibition came out at 52%.

`CS(=O)(=O)c1ccccc1S(=O)(=O)Nc1ccc2[nH]nc(-c3cccc(F)c3)c2c1` yielded an inhibition of 69%.

`O=S(=O)(Nc1ccc2[nH]nc(-c3ccccc3)c2c1)c1cccc2cccnc12` registered an inhibition of 99%.

In turn, `O=S(=O)(Nc1ccc2[nH]nc(-c3ccccc3)c2c1)c1ccccc1OC(F)(F)F` gave an inhibition of 74%.

In turn, `CS(=O)(=O)c1ccccc1S(=O)(=O)Nc1ccc2[nH]nc(-c3ccc(F)c(Cl)c3)c2c1` displayed an inhibition of 77%.

The compound `CCOc1ccccc1-c1n[nH]c2ccc(NS(=O)(=O)c3ccccc3S(C)(=O)=O)cc12` displayed an inhibition of 31%.

Turning to `CS(=O)(=O)c1ccccc1S(=O)(=O)Nc1ccc2[nH]nc(NCc3ccccc3)c2c1`, the inhibition was 92%.

`N#Cc1ccccc1S(=O)(=O)Nc1ccc2[nH]nc(-c3ccccc3)c2c1` gave an inhibition of 69%.

Compound `C=Cc1ccc(-c2n[nH]c3ccc(NS(=O)(=O)c4ccccc4S(C)(=O)=O)cc23)cc1` came in with an inhibition of 77%.

The compound `CS(=O)(=O)c1ccccc1S(=O)(=O)Nc1ccc2[nH]nc(-c3ccc(OCc4ccccc4)cc3)c2c1` returned an inhibition of 16%.

`Nc1cc(Cl)cc(Cl)c1S(=O)(=O)Nc1ccc2[nH]nc(-c3ccccc3)c2c1` yielded an inhibition of 58%.

For `Cc1cc(-c2n[nH]c3ccc(NS(=O)(=O)c4ccccc4S(C)(=O)=O)cc23)ccc1F`, the inhibition turned out to be 66%.

Turning to `COc1ccc2[nH]c(-c3n[nH]c4ccc(NS(=O)(=O)c5ccccc5S(C)(=O)=O)cc34)cc2c1`, the inhibition came to 100%.

On to `COc1cccc(-c2n[nH]c3ccc(NS(=O)(=O)c4ccccc4S(C)(=O)=O)cc23)c1`, for which the inhibition was determined as 67%.

In the case of `Nc1ccc(S(=O)(=O)Nc2ccc3[nH]nc(-c4ccccc4)c3c2)cc1`, the inhibition is 70%.

Turning to `Nc1n[nH]c2ccc(NS(=O)(=O)c3c(Cl)cccc3Cl)cc12`, the inhibition amounted to 18%.

Turning to `Cc1cc(C)c(S(=O)(=O)Nc2ccc3[nH]nc(-c4ccccc4)c3c2)c(C)c1`, the inhibition was found to be 79%.

On to `O=S(=O)(Nc1ccc2[nH]nc(-c3ccccc3)c2c1)c1cccc2ccccc12`, for which the inhibition is 90%.

`Cc1ccc(-c2n[nH]c3ccc(NS(=O)(=O)c4ccccc4S(C)(=O)=O)cc23)cc1N` returned an inhibition of 78%.

`CC(C)(C)c1ccc(-c2n[nH]c3ccc(NS(=O)(=O)c4ccccc4S(C)(=O)=O)cc23)cc1` returned an inhibition of 0%.

Regarding `CS(=O)(=O)c1ccccc1S(=O)(=O)Nc1ccc2[nH]nc(-c3ccc(F)cc3)c2c1`, the inhibition stood at 94%.

For the compound `CS(=O)(=O)c1ccccc1S(=O)(=O)Nc1ccc2[nH]nc(-c3ccc(N)cc3)c2c1`, the inhibition was determined as 85%.

On to `CS(=O)(=O)c1ccccc1S(=O)(=O)Nc1ccc2[nH]nc(-c3cccc(OCc4ccccc4)c3)c2c1`, for which the inhibition stood at 0%.

Turning to `CS(=O)(=O)c1ccccc1S(=O)(=O)Nc1ccc2[nH]nc(NC(=O)c3ccccc3)c2c1`, the inhibition was 95%.

With `COc1ccc(-c2n[nH]c3ccc(NS(=O)(=O)c4ccccc4S(C)(=O)=O)cc23)c(OC)c1OC`, the inhibition is 21%.

For the compound `Nc1n[nH]c2ccc(NS(=O)(=O)c3cccc(F)c3)cc12`, the inhibition was determined as 34%.

The compound `CS(=O)(=O)c1ccccc1S(=O)(=O)Nc1ccc2[nH]nc(-c3ccc(C(F)(F)F)cc3)c2c1` showed an inhibition of 83%.

`CS(=O)(=O)c1ccccc1S(=O)(=O)Nc1ccc2[nH]nc(-c3ccc(F)cc3F)c2c1` gave an inhibition of 83%.

As for `O=S(=O)(Nc1ccc2[nH]nc(-c3ccccc3)c2c1)c1ccc2ccccc2c1`, the inhibition is 78%.

In turn, `CS(=O)(=O)c1ccccc1S(=O)(=O)Nc1ccc2[nH]nc(-c3ccc4[nH]ccc4c3)c2c1` returned an inhibition of 73%.

Compound `CS(=O)(=O)c1ccccc1S(=O)(=O)Nc1ccc2[nH]nc(-c3cccc(Br)c3)c2c1` displayed an inhibition of 73%.

In turn, `CNc1n[nH]c2ccc(NS(=O)(=O)c3ccccc3S(C)(=O)=O)cc12` showed an inhibition of 51%.

Regarding `Cc1cccc(S(=O)(=O)Nc2ccc3[nH]nc(-c4ccccc4)c3c2)c1`, the inhibition amounted to 72%.

As to `CS(=O)(=O)c1ccccc1S(=O)(=O)Nc1ccc2[nH]nc(Sc3ccccc3)c2c1`, the inhibition was determined as 82%.

As to `CN(C)c1cccc2c(S(=O)(=O)Nc3cccc(-c4n[nH]c5ccc(NS(=O)(=O)c6ccccc6S(C)(=O)=O)cc45)c3)cccc12`, the inhibition came out at 20%.
